Experimental data taken from patent publication US20250129070A1, “BIFUNCTIONAL ANDROGEN RECEPTOR COMPOUNDS” (priority 2023, published 2025).

How the values were obtained:
VCaP cells = assay: VCaP growth inhibition assay; format: cell-based; settings: 30 pM R1881, 9 days, CTG
Description: VCaP cells (ATCC Cat #CRL-2876) are plated at 1×10^4 cells per well of a white plastic 96-well cluster plate (Thermo Scientific Nunc Cat #165306) in 100 uL phenol red-free DMEM (Gibco Cat #21063-029) media with 5% CSS (Omega Scientific Cat #FB-04). Cluster plates are returned to the incubator (37*C/5% CO2) for 72 hours prior to treatment. Just prior to treatment, 100 μL of phenol red-free DMEM/5% CSS and […] R1881 (Sigma Cat #R0908-10 mg) was added to each well of the cluster plates (Final R1881 concentration=30 pM). Compounds (200×) were added to each well in a volume of 1 uL, with serial dilutions (1:5) from 20 uM to 2 pM (final concentrations in well are 100 nM to 10 fM). Cluster plates are returned to the incubator for 9 days.
After the 9-day treatment period, media was removed from the cluster plates by inversion and 100 uL room temperature CTG reagent (Promega Cat #G7573) is added to each well. The cluster plates are placed on a shaker and incubated at room temperature for 20 minutes. Following this shaking/incubation, cluster plates are read on a luminometer (BMG ClarioStar). IC50 values are obtained by graphing the RLU data vs. compound concentration with nonlinear regression 4-parameter logistic curves (GraphPad Prism).

AR / CBP ternary complex = assay: Ternary complex formation assay (sandwich ELISA, AR capture / CBP detection) in VCaP cell lysates; format: cell-based; settings: 1.5 hours treatment, sandwich ELISA (AR capture, CBP or p300 detection)
Outline: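 VCaP cells (50K/well, 5% charcoal-stripped FBS, ≥3 days) treated with bifunctional compound for 1.5 h, then lysed 30 min at 4 °C. AR captured on anti-AR (AR 441) plates; bound CBP or p300 detected by rabbit mAb plus HRP secondary. QuantaRed chemifluorescence read at ex 570/em 585, immediately and at 5 and 15 min.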

Row | IC50 (VCaP cells) [nM] | EC50 (AR / CBP ternary complex) [nM] | Compound
1 | 0.1 to 1 | 1 to 10 | CC(=O)N1CCc2c(c(N3CCCc4cc(-c5cnn(C)c5)c(C(F)F)cc43)nn2C2CCN(CC3CCN(c4ncc(C(=O)NC5C(C)(C)C(Oc6ccc(C#N)c(Cl)c6)C5(C)C)cn4)CC3)C2)C1 (centres unmarked) [Compound 21, 2-[4-[[3-[5-acetyl-3-[7-(difluoromethyl)-6-(1-methylpyrazol-4-yl)-3,4-dihydro-2H-quinolin-1-yl]-6,7-dihydro-4H-pyrazolo[4,3-c]pyridin-1-yl]pyrrolidin-1-yl]methyl]-1-piperidyl]-N-[3-(3-chloro-4-cyano-phenoxy)-2,2,4,4-tetramethyl-cyclobutyl]pyrimidine-5-carboxamide]
2 | ≤ 0.1 | < 1 | COc1cc(OCC(C)(C)[C@H](NC(=O)c2ccc(N3CCN(CC4CCC(n5nc(N6CCCc7cc(-c8cnn(C)c8)c(C(F)F)cc76)c6c5CCN(C(C)=O)C6)CC4)CC3)cc2)C(C)C)ccc1C#N (stereo partly drawn) [Compound 317, 4-[4-[[4-[5-acetyl-3-[7-(difluoromethyl)-6-(1-methylpyrazol-4-yl)-3,4-dihydro-2H-quinolin-1-yl]-6,7-dihydro-4H-pyrazolo[4,3-c]pyridin-1-yl]cyclohexyl]methyl]piperazin-1-yl]-N-[(1R)-3-(4-cyano-3-methoxy-phenoxy)-1-isopropyl-2,2-dimethyl-propyl]benzamide]
3 | 0.1 to 1 | < 1 | CC(=O)N1CCc2c(c(N3CCCc4cc(-c5cnn(C)c5)c(C(F)F)cc43)nn2C2CCN(C3CCC4(CC3)CC(Oc3ncc(C(=O)NC5C(C)(C)C(Oc6ccc(C#N)c(Cl)c6)C5(C)C)cn3)C4)CC2)C1 (centres unmarked) [Compound 383, 2-[7-[4-[5-acetyl-3-[7-(difluoromethyl)-6-(1-methylpyrazol-4-yl)-3,4-dihydro-2H-quinolin-1-yl]-6,7-dihydro-4H-pyrazolo[4,3-c]pyridin-1-yl]-1-piperidyl]spiro[3.5]nonan-2-yl]oxy-N-[3-(3-chloro-4-cyano-phenoxy)-2,2,4,4-tetramethyl-cyclobutyl]pyrimidine-5-carboxamide]
4 | 0.1 to 1 | < 1 | CC(=O)N1CCc2c(c(N3CCCc4cc(C#N)c(C(F)F)cc43)nn2C2CCN(CC3CCN(c4ncc(C(=O)NC5C(C)(C)C(Oc6ccc(C#N)c(Cl)c6)C5(C)C)cn4)CC3(C)C)CC2)C1 (centres unmarked) [Compound 450, 2-[4-[[4-[5-acetyl-3-[6-cyano-7-(difluoromethyl)-3,4-dihydro-2H-quinolin-1-yl]-6,7-dihydro-4H-pyrazolo[4,3-c]pyridin-1-yl]-1-piperidyl]methyl]-3,3-dimethyl-1-piperidyl]-N-[3-(3-chloro-4-cyano-phenoxy)-2,2,4,4-tetramethyl-cyclobutyl]pyrimidine-5-carboxamide]
5 | ≤ 0.1 | < 1 | COc1cc(OC2C(C)(C)C(NC(=O)c3ccc(N4CCC(C)(N5CCC(n6nc(N7CCCc8cc(-c9cnn(C)c9)c(C(F)F)cc87)c7c6CCN(C(C)=O)C7)CC5)CC4)cc3)C2(C)C)ccc1C#N (centres unmarked) [Compound 305, 4-[4-[4-[5-acetyl-3-[7-(difluoromethyl)-6-(1-methylpyrazol-4-yl)-3,4-dihydro-2H-quinolin-1-yl]-6,7-dihydro-4H-pyrazolo[4,3-c]pyridin-1-yl]-1-piperidyl]-4-methyl-1-piperidyl]-N-[3-(4-cyano-3-methoxy-phenoxy)-2,2,4,4-tetramethyl-cyclobutyl]benzamide]
6 | 0.1 to 1 | < 1 | CC(=O)N1CCc2c(c(-c3cccc4cc(-c5ccc(C(=O)NCCC6CCN(c7ncc(C(=O)NC8C(C)(C)C(Oc9ccc(C#N)c(Cl)c9)C8(C)C)cn7)CC6)nc5)ncc34)nn2C2CCOCC2)C1 (centres unmarked) [Compound 179, 2-[4-[2-[[5-[8-(5-acetyl-1-tetrahydropyran-4-yl-6,7-dihydro-4H-pyrazolo[4,3-c]pyridin-3-yl)-3-isoquinolyl]pyridine-2-carbonyl]amino]ethyl]-1-piperidyl]-N-[3-(3-chloro-4-cyano-phenoxy)-2,2,4,4-tetramethyl-cyclobutyl]pyrimidine-5-carboxamide]
7 | 0.1 to 1 | < 1 | CC(=O)N1CCc2c(c(N3CCCc4cc(-c5cnn(C)c5)c(C(F)F)cc43)nn2CCOC2CCN(c3ncc(C(=O)NC4C(C)(C)C(Oc5ccc(C#N)c(Cl)c5)C4(C)C)cn3)CC2)C1 (centres unmarked) [Compound 51, 2-[4-[2-[5-acetyl-3-[7-(difluoromethyl)-6-(1-methylpyrazol-4-yl)-3,4-dihydro-2H-quinolin-1-yl]-6,7-dihydro-4H-pyrazolo[4,3-c]pyridin-1-yl]ethoxy]-1-piperidyl]-N-[3-(3-chloro-4-cyano-phenoxy)-2,2,4,4-tetramethyl-cyclobutyl]pyrimidine-5-carboxamide]
8 | ≤ 0.1 | < 1 | CC(=O)N1CCc2c(c(N3CCCc4cc(-c5cnn(C)c5)c(C)cc43)nn2C2CCN(CC3CCN(c4ncc(C(=O)NC5C(C)(C)C(Oc6ccc(C#N)c(Cl)c6C)C5(C)C)cn4)CC3(C)C)CC2)C1 (centres unmarked) [Compound 464, 2-[4-[[4-[5-acetyl-3-[7-methyl-6-(1-methylpyrazol-4-yl)-3,4-dihydro-2H-quinolin-1-yl]-6,7-dihydro-4H-pyrazolo[4,3-c]pyridin-1-yl]-1-piperidyl]methyl]-3,3-dimethyl-1-piperidyl]-N-[3-(3-chloro-4-cyano-2-methyl-phenoxy)-2,2,4,4-tetramethyl-cyclobutyl]pyrimidine-5-carboxamide]
9 | ≤ 0.1 | < 1 | CC(=O)N1CCc2c(c(N3CCCc4cc(-c5cnn(C)c5)c(C(F)F)cc43)nn2C2CCN(C3CC4(C3)CN(c3ncc(C(=O)NC5C(C)(C)C(Oc6ccc(C#N)c(Cl)c6)C5(C)C)cn3)C4)CC2)C1 (centres unmarked) [Compound 348, 2-[6-[4-[5-acetyl-3-[7-(difluoromethyl)-6-(1-methylpyrazol-4-yl)-3,4-dihydro-2H-quinolin-1-yl]-6,7-dihydro-4H-pyrazolo[4,3-c]pyridin-1-yl]-1-piperidyl]-2-azaspiro [3.3]heptan-2-yl]-N-[3-(3-chloro-4-cyano-phenoxy)-2,2,4,4-tetramethyl-cyclobutyl]pyrimidine-5-carboxamide]
10 | > 100 | 10 to 100 | CC(=O)N1CCc2c(c(N3CCCc4cc(-c5cnn(C)c5)c(C(F)F)cc43)nn2C2CCN(Cc3cn(CCc4ncc(C(=O)NC5C(C)(C)C(Oc6ccc(C#N)c(Cl)c6)C5(C)C)cn4)nn3)CC2)C1 (centres unmarked) [Compound 15, 2-[2-[4-[[4-[5-acetyl-3-[7-(difluoromethyl)-6-(1-methylpyrazol-4-yl)-3,4-dihydro-2H-quinolin-1-yl]-6,7-dihydro-4H-pyrazolo[4,3-c]pyridin-1-yl]-1-piperidyl]methyl]triazol-1-yl]ethyl]-N-[3-(3-chloro-4-cyano-phenoxy)-2,2,4,4-tetramethyl-cyclobutyl]pyrimidine-5-carboxamide]
11 | 0.1 to 1 | < 1 | CC(=O)N1CCc2c(c(Nc3ccc(-c4cnn(C)c4)cc3F)nn2C2CCN(CC3CCN(c4ncc(C(=O)NC5C(C)(C)C(Oc6ccc(C#N)c(Cl)c6)C5(C)C)cn4)CC3)CC2)C1 (centres unmarked) [Compound 186, 2-[4-[[4-[5-acetyl-3-[2-fluoro-4-(1-methylpyrazol-4-yl)anilino]-6,7-dihydro-4H-pyrazolo[4,3-c]pyridin-1-yl]-1-piperidyl]methyl]-1-piperidyl]-N-[3-(3-chloro-4-cyano-phenoxy)-2,2,4,4-tetramethyl-cyclobutyl]pyrimidine-5-carboxamide]
12 | 1 to 100 | 1 to 10 | CC(=O)N1CCc2c(c(N3CCCc4cc(-c5cnn(C)c5)c(C(F)F)cc43)nn2C2CC3(C2)CC2(CCN(c4ncc(C(=O)NC5C(C)(C)C(Oc6ccc(C#N)c(Cl)c6)C5(C)C)cn4)CC2)C3)C1 (centres unmarked) [Compound 287, 2-[2-[5-acetyl-3-[7-(difluoromethyl)-6-(1-methylpyrazol-4-yl)-3,4-dihydro-2H-quinolin-1-yl]-6,7-dihydro-4H-pyrazolo[4,3-c]pyridin-1-yl]-9-azadispiro[3.1.5^6.1^4]dodecan-9-yl]-N-[3-(3-chloro-4-cyano-phenoxy)-2,2,4,4-tetramethyl-cyclobutyl]pyrimidine-5-carboxamide]
13 | ≤ 0.1 | < 1 | CC(=O)N1CCc2c(c(-c3cccc4cc(-c5cnn(CCC6CC7(C6)CN(c6ncc(C(=O)NC8C(C)(C)C(Oc9ccc(C#N)c(Cl)c9)C8(C)C)cn6)C7)c5)ncc34)nn2C)C1 (centres unmarked) [Compound 226, 2-[6-[2-[4-[8-(5-acetyl-1-methyl-6,7-dihydro-4H-pyrazolo[4,3-c]pyridin-3-yl)-3-isoquinolyl]pyrazol-1-yl]ethyl]-2-azaspiro[3.3]heptan-2-yl]-N-[3-(3-chloro-4-cyano-phenoxy)-2,2,4,4-tetramethyl-cyclobutyl]pyrimidine-5-carboxamide]
